Measurements reported in patent US20140378422A1, “Combination of a RTK inhibitor with an anti-estrogen and use thereof for the treatment of cancer” (NOVARTIS AG, priority 2012, published 2014).

Key:
metastatic breast cancer = assay: Clinical trial of Compound A as single agent in metastatic breast cancer patients; type: in vivo, human; conditions: preliminary results
CAMA-1 cell line = assay: CAMA-1 cell proliferation, CellTiter-Glo Luminescent Cell Viability Assay, dose matrix analysed with Chalice Analyzer; type: cell-based; conditions: standard media, 72 hrs, FIG. 2A
Method: Cell lines were grown at 37° C. and 5% CO2.
24 hours following plating, 20 ul of each compound dilution series was transferred to plates containing the cells, resulting in compound concentration ranges from 50 nM to 4000 nM by 3-fold dilutions and a final DMSO concentration of 0.16%. The total volume in each well was 100 ul and each dose matrix was tested in triplicate on separate assay plates.
The average and standard deviation percent inhibition relative to DMSO treated control for triplicate compound-treated wells at each concentration of compounds was determined and up-loaded to Chalice Analyzer Database.

SMILES: CN1CCN(c2ccc3nc(-c4c(N)c5c(F)cccc5[nH]c4=O)[nH]c3c2)CC1 [Compound A, 4-amino-5-fluoro-3-[5-(4-methylpiperazin-1-yl)-1H-benzimidazol-2-yl]quinolin-2(1H)-one]
- unconfirmed partial responses (metastatic breast cancer; patients with FGF amplified disease (FGFR1 and/or FGFR2 and/or FGF3 amplification)): 3
- patients with stable disease for greater than 24 weeks and/or a partial response that was not confirmed at four weeks (metastatic breast cancer; patients with FGF amplified disease): five
- patients with stable disease greater than 24 weeks (metastatic breast cancer; patients with FGF-pathway non-amplified disease): 3

SMILES: C[C@]12CC[C@@H]3c4ccc(O)cc4C[C@@H](CCCCCCCCC[S+]([O-])CCCC(F)(F)C(F)(F)F)[C@H]3[C@@H]1CC[C@@H]2O (stereo partly drawn) [Fulvestrant, (7α,17β)-7-[9-[(4,4,5,5,5-Pentafluoropentyl)sulfinyl]nonyl]estra-1,3,5(10)-triene-3,17-diol]
- concentrations with a modest effect on proliferation as a single agent (CAMA-1 cell line): ≥ 0.049 µM
